ChEMBL document CHEMBL1134874, “Identification of a novel partial inhibitor of dopamine transporter among 4-substituted 2-phenylquinazolines” (Bioorg Med Chem Lett, 2002)

Tests used:
[1] = molecular target: Sodium-dependent serotonin transporter (Rattus norvegicus, UniProt P31652); test: Inhibition of [125I]RTI-55 binding to Serotonin transporter of rat caudate membranes; format: cell membranes, Membrane
[2] = molecular target: Sodium-dependent dopamine transporter (Rattus norvegicus, UniProt P23977); test: Displacement of [125I]RTI-55 from Dopamine transporter of rat caudate membranes; format: cell membranes, Membrane
Chain of Sodium-dependent dopamine transporter (P23977 whole entry): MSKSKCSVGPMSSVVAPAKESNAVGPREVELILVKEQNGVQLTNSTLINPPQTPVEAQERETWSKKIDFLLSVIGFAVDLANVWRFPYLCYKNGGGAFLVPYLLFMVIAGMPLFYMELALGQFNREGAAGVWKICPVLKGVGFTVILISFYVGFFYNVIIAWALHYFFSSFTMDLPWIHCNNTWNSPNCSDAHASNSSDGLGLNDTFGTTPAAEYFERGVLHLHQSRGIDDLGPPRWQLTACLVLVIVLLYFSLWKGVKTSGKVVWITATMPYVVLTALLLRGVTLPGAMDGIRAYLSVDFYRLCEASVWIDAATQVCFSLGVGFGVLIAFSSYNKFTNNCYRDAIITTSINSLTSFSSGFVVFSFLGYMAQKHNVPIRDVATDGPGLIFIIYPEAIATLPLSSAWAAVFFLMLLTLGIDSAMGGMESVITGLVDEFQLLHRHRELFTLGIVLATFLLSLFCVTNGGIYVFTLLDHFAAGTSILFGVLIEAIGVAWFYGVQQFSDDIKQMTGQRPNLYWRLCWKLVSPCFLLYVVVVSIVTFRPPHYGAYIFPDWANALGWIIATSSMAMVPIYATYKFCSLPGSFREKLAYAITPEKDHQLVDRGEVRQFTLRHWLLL

Chain of Sodium-dependent serotonin transporter (P31652 whole entry): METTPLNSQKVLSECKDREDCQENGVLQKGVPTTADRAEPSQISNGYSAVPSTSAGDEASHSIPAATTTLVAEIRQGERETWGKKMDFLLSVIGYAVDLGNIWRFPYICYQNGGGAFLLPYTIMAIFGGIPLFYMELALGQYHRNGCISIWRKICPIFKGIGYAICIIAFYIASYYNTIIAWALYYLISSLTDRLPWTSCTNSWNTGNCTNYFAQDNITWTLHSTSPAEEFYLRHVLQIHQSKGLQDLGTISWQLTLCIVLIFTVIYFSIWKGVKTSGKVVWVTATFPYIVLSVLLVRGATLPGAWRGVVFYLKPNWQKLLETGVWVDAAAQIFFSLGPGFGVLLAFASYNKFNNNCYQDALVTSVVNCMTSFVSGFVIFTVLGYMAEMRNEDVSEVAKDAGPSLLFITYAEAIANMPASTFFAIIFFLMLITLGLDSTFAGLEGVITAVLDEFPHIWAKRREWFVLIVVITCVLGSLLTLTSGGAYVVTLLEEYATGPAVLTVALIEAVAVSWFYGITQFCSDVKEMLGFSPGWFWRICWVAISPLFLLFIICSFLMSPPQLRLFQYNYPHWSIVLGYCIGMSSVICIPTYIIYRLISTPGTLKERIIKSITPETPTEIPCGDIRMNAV

SMILES | Ki [1] | Ki [2]
c1ccc(-c2nc(SC(c3ccccc3)c3ccccc3)c3ccccc3n2)cc1 | > 10 µM | > 10 µM
CN(C)CCCSc1nc(-c2ccccc2)nc2ccccc12 | 9.6 µM | 6.1 µM
CN1C2CCC1CC(Oc1nc(-c3ccccc3)nc3ccccc13)C2 (stereo not drawn) | 5.1 µM | 5.1 µM
CN1CCC(Oc2nc(-c3ccccc3)nc3ccccc23)CC1 | > 10 µM | 9.1 µM
c1ccc(CNc2nc(-c3ccccc3)nc3ccccc23)cc1 | > 10 µM | 7.9 µM
CN(C)CCCOc1nc(-c2ccccc2)nc2ccccc12 | > 10 µM | 
CN(C)CCCNc1nc(-c2ccccc2)nc2ccccc12 | > 10 µM | > 10 µM

Other lines, results leading:

Ki [1] | Ki [2] | SMILES
> 10 µM | 6.1 µM | C[C@@H](Nc1nc(-c2ccccc2)nc2ccccc12)c1ccccc1
> 10 µM | > 10 µM | c1ccc(-c2nc(NCCC(c3ccccc3)c3ccccc3)c3ccccc3n2)cc1
> 10 µM | 5.4 µM | c1ccc(-c2nc(NCC(c3ccccc3)c3ccccc3)c3ccccc3n2)cc1
> 10 µM | 0.53 µM | c1ccc(-c2nc(NC(c3ccccc3)c3ccccc3)c3ccccc3n2)cc1
> 10 µM | 1.8 µM | C[C@H](Nc1nc(-c2ccccc2)nc2ccccc12)c1ccccc1
